Some targets named below: CHK2 (Homo sapiens, UniProt O96017); CaMK2b (Homo sapiens, UniProt Q13554); DYRK1A (Homo sapiens, UniProt Q13627); MST4 (Homo sapiens, UniProt Q9P289); CLK1 (Homo sapiens, UniProt P49759); CaMKK2 (Homo sapiens, UniProt Q96RR4); MSK1b (Homo sapiens, UniProt O75582).
What all share (settings): binder
Another assay concerns the target T1, MAP2K4 (Homo sapiens, UniProt P45985).
T1 sequence (P45985 1-399): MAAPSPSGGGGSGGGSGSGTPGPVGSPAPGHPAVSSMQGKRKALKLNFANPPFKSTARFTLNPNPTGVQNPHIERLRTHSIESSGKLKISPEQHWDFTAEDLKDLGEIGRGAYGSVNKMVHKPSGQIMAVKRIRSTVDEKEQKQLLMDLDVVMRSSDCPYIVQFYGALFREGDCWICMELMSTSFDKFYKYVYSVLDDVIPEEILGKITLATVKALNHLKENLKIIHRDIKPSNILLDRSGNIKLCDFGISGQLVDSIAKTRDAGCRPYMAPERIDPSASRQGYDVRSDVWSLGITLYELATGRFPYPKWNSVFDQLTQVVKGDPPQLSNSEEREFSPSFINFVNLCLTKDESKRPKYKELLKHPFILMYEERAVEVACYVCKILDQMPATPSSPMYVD

For another assay, the target named is T2, MAP2K6 (Homo sapiens, UniProt P52564).
T2 sequence (P52564 1-334): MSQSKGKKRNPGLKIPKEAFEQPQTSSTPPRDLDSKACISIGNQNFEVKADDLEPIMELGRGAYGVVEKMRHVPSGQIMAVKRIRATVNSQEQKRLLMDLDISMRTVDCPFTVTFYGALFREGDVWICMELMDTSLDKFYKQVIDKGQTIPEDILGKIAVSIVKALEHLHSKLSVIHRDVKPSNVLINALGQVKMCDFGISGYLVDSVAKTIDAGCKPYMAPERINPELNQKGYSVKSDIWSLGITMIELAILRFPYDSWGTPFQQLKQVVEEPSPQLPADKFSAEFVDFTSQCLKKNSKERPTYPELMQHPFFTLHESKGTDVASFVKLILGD

Another assay has as its target T3, MER (Homo sapiens, UniProt Q12866).
T3 sequence (Q12866 1-999): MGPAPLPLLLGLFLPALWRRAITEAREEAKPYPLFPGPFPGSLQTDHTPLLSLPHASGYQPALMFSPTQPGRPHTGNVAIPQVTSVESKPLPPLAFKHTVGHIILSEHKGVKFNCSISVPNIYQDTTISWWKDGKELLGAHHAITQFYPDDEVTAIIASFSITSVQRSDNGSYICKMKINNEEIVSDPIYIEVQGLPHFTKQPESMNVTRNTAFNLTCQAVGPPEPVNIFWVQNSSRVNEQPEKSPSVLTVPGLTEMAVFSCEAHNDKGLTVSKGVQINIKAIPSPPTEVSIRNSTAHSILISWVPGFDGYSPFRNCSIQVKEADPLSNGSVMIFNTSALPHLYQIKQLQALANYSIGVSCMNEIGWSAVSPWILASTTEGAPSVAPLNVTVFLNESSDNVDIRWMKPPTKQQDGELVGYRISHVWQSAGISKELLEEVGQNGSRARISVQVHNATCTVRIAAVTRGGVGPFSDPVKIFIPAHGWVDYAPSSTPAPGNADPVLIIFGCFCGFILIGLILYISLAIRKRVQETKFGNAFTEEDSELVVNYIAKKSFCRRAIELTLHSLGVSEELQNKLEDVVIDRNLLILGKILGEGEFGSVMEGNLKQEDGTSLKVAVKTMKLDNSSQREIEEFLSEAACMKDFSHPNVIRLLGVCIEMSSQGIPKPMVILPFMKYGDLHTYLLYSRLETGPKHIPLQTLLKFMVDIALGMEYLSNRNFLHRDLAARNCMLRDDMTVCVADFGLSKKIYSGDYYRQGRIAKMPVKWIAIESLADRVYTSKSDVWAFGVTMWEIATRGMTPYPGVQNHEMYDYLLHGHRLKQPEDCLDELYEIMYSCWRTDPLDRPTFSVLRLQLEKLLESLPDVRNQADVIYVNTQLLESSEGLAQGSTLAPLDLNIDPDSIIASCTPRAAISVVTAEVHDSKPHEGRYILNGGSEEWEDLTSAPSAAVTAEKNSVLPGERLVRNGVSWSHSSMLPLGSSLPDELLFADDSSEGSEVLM

The next assay deals with T4, PHKG2 (Homo sapiens, UniProt P15735).
T4 sequence (P15735 1-406): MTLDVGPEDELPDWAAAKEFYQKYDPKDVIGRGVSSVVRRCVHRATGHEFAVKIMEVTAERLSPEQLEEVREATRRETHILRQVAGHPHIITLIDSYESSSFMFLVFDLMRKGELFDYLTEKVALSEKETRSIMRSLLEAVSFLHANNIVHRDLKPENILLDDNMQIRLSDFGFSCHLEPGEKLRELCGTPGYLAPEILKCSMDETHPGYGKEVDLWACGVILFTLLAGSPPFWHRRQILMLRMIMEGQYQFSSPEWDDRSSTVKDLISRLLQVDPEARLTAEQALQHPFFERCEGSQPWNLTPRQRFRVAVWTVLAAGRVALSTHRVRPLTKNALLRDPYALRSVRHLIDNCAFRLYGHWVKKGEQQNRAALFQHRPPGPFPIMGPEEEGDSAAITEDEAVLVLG

The results in this text go back to article doi:10.1101/2023.11.24.568596v1 (biorxiv, 2023).

Sequence of CaMKK2 (Q96RR4 whole entry): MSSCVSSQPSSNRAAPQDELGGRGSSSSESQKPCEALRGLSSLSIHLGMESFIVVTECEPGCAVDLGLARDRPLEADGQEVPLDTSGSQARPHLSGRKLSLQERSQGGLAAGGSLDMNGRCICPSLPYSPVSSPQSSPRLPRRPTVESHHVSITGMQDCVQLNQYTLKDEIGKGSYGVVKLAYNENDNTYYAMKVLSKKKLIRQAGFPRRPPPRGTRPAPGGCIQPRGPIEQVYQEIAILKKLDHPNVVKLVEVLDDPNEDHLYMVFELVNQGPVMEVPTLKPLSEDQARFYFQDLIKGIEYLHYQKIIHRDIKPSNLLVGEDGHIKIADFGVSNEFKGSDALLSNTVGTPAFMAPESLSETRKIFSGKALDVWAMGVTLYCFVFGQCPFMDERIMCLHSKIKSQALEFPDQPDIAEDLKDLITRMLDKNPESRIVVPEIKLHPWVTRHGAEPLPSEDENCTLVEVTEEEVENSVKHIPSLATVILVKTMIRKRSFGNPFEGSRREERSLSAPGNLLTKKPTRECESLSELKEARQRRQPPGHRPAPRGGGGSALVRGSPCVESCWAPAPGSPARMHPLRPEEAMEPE
Sequence of CLK1 (P49759 whole entry): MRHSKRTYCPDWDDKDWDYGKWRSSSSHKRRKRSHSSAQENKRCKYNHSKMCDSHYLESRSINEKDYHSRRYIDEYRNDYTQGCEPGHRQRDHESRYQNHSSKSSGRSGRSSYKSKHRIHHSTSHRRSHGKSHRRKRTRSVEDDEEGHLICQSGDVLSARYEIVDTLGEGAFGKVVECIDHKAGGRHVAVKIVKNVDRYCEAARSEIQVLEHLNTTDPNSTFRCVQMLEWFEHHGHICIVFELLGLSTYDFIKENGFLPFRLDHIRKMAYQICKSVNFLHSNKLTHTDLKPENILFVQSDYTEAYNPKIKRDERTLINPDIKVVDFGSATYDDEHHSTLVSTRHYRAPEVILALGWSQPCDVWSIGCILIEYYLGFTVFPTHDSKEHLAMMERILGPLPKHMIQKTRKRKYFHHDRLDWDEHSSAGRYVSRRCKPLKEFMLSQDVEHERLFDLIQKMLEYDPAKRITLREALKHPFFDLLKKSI
Sequence of CaMK2b (Q13554 whole entry): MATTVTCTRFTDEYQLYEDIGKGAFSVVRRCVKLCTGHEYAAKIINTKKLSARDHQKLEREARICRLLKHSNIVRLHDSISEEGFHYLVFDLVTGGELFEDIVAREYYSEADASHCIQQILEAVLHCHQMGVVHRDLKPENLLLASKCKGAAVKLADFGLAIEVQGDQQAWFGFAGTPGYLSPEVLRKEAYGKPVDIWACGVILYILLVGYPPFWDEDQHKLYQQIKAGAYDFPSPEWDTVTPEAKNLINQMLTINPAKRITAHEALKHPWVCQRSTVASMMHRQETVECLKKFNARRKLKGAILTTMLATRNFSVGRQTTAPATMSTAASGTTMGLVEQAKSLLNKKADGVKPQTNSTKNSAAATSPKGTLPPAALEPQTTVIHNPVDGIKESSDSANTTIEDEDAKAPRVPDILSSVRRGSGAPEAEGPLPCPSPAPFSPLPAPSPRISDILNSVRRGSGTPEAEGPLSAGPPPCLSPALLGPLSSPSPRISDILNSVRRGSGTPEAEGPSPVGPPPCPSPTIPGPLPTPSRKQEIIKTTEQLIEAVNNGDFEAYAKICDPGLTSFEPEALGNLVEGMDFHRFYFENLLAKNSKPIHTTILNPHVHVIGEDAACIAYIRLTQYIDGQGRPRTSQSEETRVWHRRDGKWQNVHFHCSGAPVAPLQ
Sequence of MST4 (Q9P289 whole entry): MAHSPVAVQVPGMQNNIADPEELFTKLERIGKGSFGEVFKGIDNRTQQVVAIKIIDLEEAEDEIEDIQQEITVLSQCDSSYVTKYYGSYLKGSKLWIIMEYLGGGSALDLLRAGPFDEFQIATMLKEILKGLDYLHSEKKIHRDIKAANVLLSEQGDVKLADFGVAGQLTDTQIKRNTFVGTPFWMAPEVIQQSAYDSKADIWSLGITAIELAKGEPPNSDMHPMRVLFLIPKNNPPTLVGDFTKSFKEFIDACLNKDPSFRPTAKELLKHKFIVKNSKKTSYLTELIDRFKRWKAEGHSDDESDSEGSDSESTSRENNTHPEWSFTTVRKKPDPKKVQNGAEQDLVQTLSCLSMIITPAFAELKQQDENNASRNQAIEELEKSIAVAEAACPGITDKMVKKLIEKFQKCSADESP
Sequence of MSK1b (O75582 whole entry): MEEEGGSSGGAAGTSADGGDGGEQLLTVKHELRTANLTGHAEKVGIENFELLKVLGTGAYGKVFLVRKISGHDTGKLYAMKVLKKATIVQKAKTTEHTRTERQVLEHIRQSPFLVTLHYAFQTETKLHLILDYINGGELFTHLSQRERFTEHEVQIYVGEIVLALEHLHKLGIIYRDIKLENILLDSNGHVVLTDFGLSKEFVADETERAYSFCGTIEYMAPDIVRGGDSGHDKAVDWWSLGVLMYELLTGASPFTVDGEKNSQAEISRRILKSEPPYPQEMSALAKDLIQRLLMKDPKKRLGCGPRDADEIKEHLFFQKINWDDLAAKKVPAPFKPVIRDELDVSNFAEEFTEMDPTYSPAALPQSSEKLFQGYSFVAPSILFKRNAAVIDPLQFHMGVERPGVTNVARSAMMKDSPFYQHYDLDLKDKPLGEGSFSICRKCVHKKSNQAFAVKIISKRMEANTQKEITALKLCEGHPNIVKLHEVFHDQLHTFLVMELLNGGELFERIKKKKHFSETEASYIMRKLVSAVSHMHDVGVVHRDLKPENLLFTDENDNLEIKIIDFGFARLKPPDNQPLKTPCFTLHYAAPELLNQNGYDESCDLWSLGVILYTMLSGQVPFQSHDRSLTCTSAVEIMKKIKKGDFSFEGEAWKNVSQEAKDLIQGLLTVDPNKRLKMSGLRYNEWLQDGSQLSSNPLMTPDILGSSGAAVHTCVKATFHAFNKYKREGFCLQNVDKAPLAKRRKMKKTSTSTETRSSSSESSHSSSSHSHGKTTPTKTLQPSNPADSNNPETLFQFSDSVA
Sequence of CHK2 (O96017 whole entry): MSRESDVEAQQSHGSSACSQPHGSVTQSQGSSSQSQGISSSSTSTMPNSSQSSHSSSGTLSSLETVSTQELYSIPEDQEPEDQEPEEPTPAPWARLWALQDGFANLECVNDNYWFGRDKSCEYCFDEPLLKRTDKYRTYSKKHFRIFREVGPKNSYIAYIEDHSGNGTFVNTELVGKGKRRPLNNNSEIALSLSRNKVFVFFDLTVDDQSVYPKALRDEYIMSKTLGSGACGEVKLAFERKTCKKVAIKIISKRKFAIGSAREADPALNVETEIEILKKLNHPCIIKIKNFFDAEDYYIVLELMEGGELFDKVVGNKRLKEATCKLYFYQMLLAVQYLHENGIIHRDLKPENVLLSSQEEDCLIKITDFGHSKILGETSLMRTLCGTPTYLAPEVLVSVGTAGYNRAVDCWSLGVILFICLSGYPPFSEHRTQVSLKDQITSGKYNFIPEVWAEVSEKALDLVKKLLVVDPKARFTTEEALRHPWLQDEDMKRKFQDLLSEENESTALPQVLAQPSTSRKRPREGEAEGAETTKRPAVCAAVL

Turning to `Cc1cccc(-c2ccc(-c3cc4cnc(Nc5ccc(C)c(O)c5)nc4n(CCCCN)c3=O)c(Cl)c2)n1` [compound 32, 8-(4-Aminobutyl)-6-(2-chloro-4-(6-methylpyridin-2-yl)phenyl)-2-((3-hydroxy-4-methylphenyl)amino)pyrido[2,3-d]pyrimidin-7(8H)-one], the “ΔTm 32” value at CHK2 is 11.0 °C; on CaMK2b, 0.3 °C; on DYRK1A, -0.4 °C; on MST4, 15.5 °C.
On to `Cc1cccc(-c2ccc(-c3cc4cnc(NCCCc5ccc(N)cc5)nc4n(CCCCN)c3=O)c(Cl)c2)n1` [compound 25, 8-(4-Aminobutyl)-2-((3-(4-aminophenyl)propyl)amino)-6-(2-chloro-4-(6-methylpyridin-2-yl)phenyl)pyrido[2,3-d]pyrimidin-7(8H)-one], for which the “ΔTm 25” value came out at 1.4 °C at CLK1; 3.3 °C on CaMKK2; 7.9 °C at MAP2K4; 8.3 °C at MAP2K6; 1.6 °C at MER; 1.4 °C on MSK1b. Also, the “ΔTm 25” value at PHKG2 stood at 4.0 °C.
On to `CNc1ncc2cc(-c3ccc(-c4cccc(C)n4)cc3Cl)c(=O)n(C[C@H]3CC[C@H](N)CC3)c2n1` [compound 23, 23], for which the “ΔTm 23” value on CLK1 was 0.8 °C; at CaMKK2, 4.9 °C; at MAP2K4 it was 8.2 °C; on MAP2K6, 8.3 °C; on MER, 3.1 °C; at MSK1b, 6.4 °C. In addition, the “ΔTm 23” value on PHKG2 is 2.4 °C.
As for `Cc1cccc(-c2ccc(-c3cc4cnc(Nc5ccc(O)cc5)nc4n(CCCCN)c3=O)c(Cl)c2)n1` [compound 31, 8-(4-Aminobutyl)-6-(2-chloro-4-(6-methylpyridin-2-yl)phenyl)-2-((4-hydroxyphenyl)amino) pyrido[2,3-d]pyrimidin-7(8H)-one], the “ΔTm 31” value is 11.2 °C at CHK2, -0.4 °C at CaMK2b, -1.0 °C on DYRK1A and 14.7 °C at MST4.
Turning to `CNc1ncc2cc(-c3ccc(-c4cccc(C)n4)cc3Cl)c(=O)n(CCCCN)c2n1` [compound 20, MRLW5], the “ΔTm MRLW5 (20)” value stood at 0.3 °C at CLK1; 1.4 °C at CaMKK2; 7.7 °C on MAP2K4; 5.7 °C on MAP2K6; 2.5 °C on MER; 2.9 °C on MSK1b. Besides, on PHKG2, the “ΔTm MRLW5 (20)” value stood at 1.8 °C.
With `CNc1ncc2cc(-c3ccc(-c4cccc(C)n4)cc3Cl)c(=O)n(CCC3CCNCC3)c2n1` [compound 22, 6-(2-Chloro-4-(6-methylpyridin-2-yl)phenyl)-2-(methylamino)-8-(2-(piperidin-4-yl)ethyl)pyrido[2,3-d]pyrimidin-7(8H)-one], the “ΔTm 22” value on CLK1 is -1.6 °C; at CaMKK2, 2.3 °C; on MAP2K4, 6.1 °C; on MAP2K6 it was 5.6 °C; on MER, 2.6 °C; on MSK1b, 0.1 °C. Further, the “ΔTm 22” value at PHKG2 came out at 1.4 °C.
`Cc1cccc(-c2ccc(-c3cc4cnc(Nc5cc(C(F)(F)F)ccc5C)nc4n(CCCCN)c3=O)c(Cl)c2)n1` [compound 28, 8-(4-Aminobutyl)-6-(2-chloro-4-(6-methylpyridin-2-yl)phenyl)-2-((2-methyl-5-(trifluoromethyl)phenyl)amino)pyrido[2,3-d]pyrimidin-7(8H)-one]: the “ΔTm 28” value on CHK2 was 4.6 °C; on CaMK2b, 0.7 °C; at DYRK1A, 0.2 °C; on MST4, 8.8 °C.
In the case of `Cc1cccc(-c2ccc(-c3cc4cnc(NCCCN5CCNCC5)nc4n(CCCCN)c3=O)c(Cl)c2)n1` [compound 29, 8-(4-Aminobutyl)-6-(2-chloro-4-(6-methylpyridin-2-yl)phenyl)-2-((3-(piperazin-1-yl)propyl)amino)pyrido[2,3-d]pyrimidin-7(8H)-one], the “ΔTm 29” value on CHK2 was 2.4 °C; at CaMK2b it was -0.5 °C; at DYRK1A it was -0.3 °C; at MST4, 10.2 °C.
With `Cc1cccc(-c2ccc(-c3cc4cnc(NC(CO)CO)nc4n(CCCCN)c3=O)c(Cl)c2)n1` [compound 24, 8-(4-Aminobutyl)-6-(2-chloro-4-(6-methylpyridin-2-yl)phenyl)-2-((1,3-dihydroxypropan-2-yl)amino)pyrido[2,3-d]pyrimidin-7(8H)-one], the “ΔTm MR24 (24)” value on CLK1 is -0.4 °C; on CaMKK2 it was 0.2 °C; at MAP2K4, 5.0 °C; at MAP2K6, 2.8 °C; on MER it was -0.7 °C; at MSK1b, -1.0 °C. The “ΔTm MR24 (24)” value on PHKG2 is 1.0 °C.
Turning to `Cc1cccc(-c2ccc(-c3cc4cnc(NCCCN5CCOCC5)nc4n(CCCCN)c3=O)c(Cl)c2)n1` [compound 26, MR26], the “ΔTm MR26 (26)” value was -0.1 °C on CLK1; 1.5 °C on CaMKK2; 5.6 °C on MAP2K4; 3.1 °C on MAP2K6; 1.0 °C at MER; -0.4 °C at MSK1b. For the same molecule, the “ΔTm MR26 (26)” value on PHKG2 came to 2.1 °C.
